The values that follow come from article PMC6150413 (Molecules : A Journal of Synthetic Chemistry and Natural …, 2017).

Ends that are not written are not given here. Peptide text beside a SMILES is read from it.

In data set [1] the test system is E. coli. The conditions noted are these: cited from earlier work.
Data set [2] relates to S. aureus. The conditions noted are these: cited from earlier work.
Data set [3] deals with P. aeruginosa. The conditions noted are these: cited from earlier work.
On the set-up of data set [4]: method as in PMID 9038346. The conditions noted are these: salt from 50 to 125 mmol/L; cited from earlier work.
Data set [5] concerns E. coli ATCC 25922. The conditions noted are these: ATCC 25922, 2 h. As to the method:
(§1) The antimicrobial activities of VIP and its analogues were tested against S. aureus ATCC 25923 and E. coli ATCC 25922 according to the method reported by Wani et al. with slight modification. The final peptide concentrations ranged from 0.5 to 256 μM. The tests were performed in triplicate using 4 replicates for each experiment. In addition, S. aureus ATCC 25923 and E. coli ATCC 25922 (2 × 10^6 CFU/mL) were treated with natural VIP and VIP8 at MIC for 2 h. […] The haemolytic activity of VIP and VIP derivatives were measured using porcine erythrocytes according to previous method. MTT (3-[4,5 dimethylthiozol-2-yl]-2,5-diphenyltetrazolium bromide) was used to determine the cytotoxicity of VIP and its analogue on porcine intestinal epithelial cells IPEC-J2. Stable experiments were conducted with reference to the literature with slightly changes. First, the pH of the mediums was adjusted to acidic (pH 4.0, pH 5.0, and pH 6.0) and basic (pH 8.0, pH 9.0, and pH 10.0) conditions. To investigate the effects of ion strength, the bacterial mediums were supplemented with different concentrations of NaCl (20 mM, 60 mM, and 180 mM) or MgCl2 (1 mM, 25 mM, and 50 mM). Then, bacteria were incubated with VIP, VIP analogues 2 and 8, respectively. After 3 h of incubation, bacterial viability was measured with a Synergy HT multimode reader (BioTek, Winooski, VT, USA) at 600 nm.
(§2) Both the agar diffusion test and modified broth microdilution method were used to evaluate the antimicrobial activity of recombinant expressed VIP8. For the Oxford cup agar diffusion, the sample was added to an Oxford cup, which was then placed on a Mueller-Hinton agar plate containing 1 × 10^5 colony-forming units of S. aureus […]. Chemically-synthesized VIP8 and ampicillin were used as the positive control. The minimal inhibition concentration was determined by the method reported by Wani et al..

For data set [6], the system named is S. aureus ATCC 25923. The conditions noted are these: ATCC 25923, 2 h. As to the method:
as §1, §2

Data set [7] relates to 3T3-L1 cells.

In the case of “human β-defensin 4 (EFELDRICGYGTARCRKKCRSQEYRIGRCPNTYACCLRKWDESLLNRTKP; ends and bridges not checked; cysteine pairing not given here; UniProt Q8WTQ1 23-72, looked up) [hBD-4, human β-defensin quoted from the literature]”, the “Antimicrobial activity at high concentrations of NaCl” value in data set [1], in data set [2] and in data set [3] was “attenuated” throughout.
On to “human β-defensin 1 (DHYNCVSSGGQCLYSACPIFTKIQGTCYRGKAKCCK; ends and bridges not checked; cysteine pairing not given here; UniProt P60022 33-68, looked up) [hBD-1, human β-defensin quoted from the literature]”, for which the “Activity remaining at raised salt concentration” value in data set [4] is recorded as 12%.
For `CC[C@H](C)[C@H](NC(=O)[C@H](C)NC(=O)[C@H](C)NC(=O)[C@H](CC(C)C)NC(=O)[C@H](Cc1ccc(O)cc1)NC(=O)[C@H](CCCNC(=N)N)NC(=O)[C@H](CCCNC(=N)N)NC(=O)[C@@H](NC(=O)[C@H](C)NC(=O)[C@H](CC(C)C)NC(=O)[C@H](CCC(N)=O)NC(=O)[C@H](CCCNC(=N)N)NC(=O)[C@H](CCCNC(=N)N)NC(=O)[C@H](CC(C)C)NC(=O)[C@H](CCCNC(=N)N)NC(=O)[C@@H](NC(=O)[C@H](Cc1ccc(O)cc1)NC(=O)[C@H](CC(N)=O)NC(=O)[C@H](C)NC(=O)[C@@H](NC(=O)[C@@H](N)Cc1ccccc1)[C@@H](C)O)[C@@H](C)O)C(C)C)C(=O)N[C@@H](CC(C)C)C(=O)NCC(=O)N[C@@H](CCCNC(=N)N)C(=O)N[C@@H](CCCNC(=N)N)C(=O)O` [VIP8] (H-FTANYTRLRRQLAVRRYLAAILGRR-OH), in data set [5], the “MBC (minimum bactericidal concentration)” value came out at 4 µM and the “MIC (minimum inhibitory concentration)” value is 2 µM. Moreover, in data set [6], the “MBC (minimum bactericidal concentration)” value is 4 µM and the “MIC (minimum inhibitory concentration)” value amounted to 2 µM. Moreover, the “Cytotoxicity (in words)” value in data set [7] is recorded as “no cytotoxicity”.
